Results published in ChEMBL document CHEMBL1201862, “PubChem BioAssay data set” (2004).
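Test compounds were applied to cells in 96-well plates for 48 hours at 5 doses. At the GI50, growth is halved.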 Active and inactive are the calls of the source. Cut-off read from the data, not from the text of the source: active = GI50 up to about 1.1 µM and inactive = higher.

Experiments:
Assay in all cases: NCI tumour cell line growth inhibition, 48 h
T47D = tested on: T47D
PC-3 = tested on: PC-3
SK-MEL-28 = tested on: SK-MEL-28
SR = tested on: SR
OVCAR-8 = tested on: OVCAR-8
SK-MEL-5 = tested on: SK-MEL-5
HOP-92 = tested on: HOP-92
CCRF-CEM = tested on: CCRF-CEM
SNB-75 = tested on: SNB-75
HCT-15 = tested on: HCT-15
MCF7 = tested on: MCF7
UACC-62 = tested on: UACC-62
EKVX = tested on: EKVX
MDA-N = tested on: MDA-N
Hs-578T = tested on: Hs-578T
UO-31 = tested on: UO-31
DU-145 = tested on: DU-145
NCI/ADR-RES = tested on: NCI/ADR-RES
RXF 393 = tested on: RXF 393
NCI-H23 = tested on: NCI-H23
SW-620 = tested on: SW-620
TK-10 = tested on: TK-10
HOP-62 = tested on: HOP-62
BT-549 = tested on: BT-549
NCI-H522 = tested on: NCI-H522
HCC 2998 = tested on: HCC 2998
A498 = tested on: A498
M14 = tested on: M14
SN12C = tested on: SN12C
NCI-H226 = tested on: NCI-H226
SF-539 = tested on: SF-539
NCI-H460 = tested on: NCI-H460
SK-OV-3 = tested on: SK-OV-3
SF-295 = tested on: SF-295
SF-268 = tested on: SF-268
COLO 205 = tested on: COLO 205
U-251 = tested on: U-251
K562 = tested on: K562
LOX IMVI = tested on: LOX IMVI
MOLT-4 = tested on: MOLT-4
MDA-MB-231 = tested on: MDA-MB-231
UACC-257 = tested on: UACC-257
IGROV-1 = tested on: IGROV-1
OVCAR-3 = tested on: OVCAR-3
OVCAR-5 = tested on: OVCAR-5
MDA-MB-435 = tested on: MDA-MB-435
786-0 = tested on: 786-0
CAKI-1 = tested on: CAKI-1
ACHN = tested on: ACHN
RPMI-8226 = tested on: RPMI-8226
Malme-3M = tested on: Malme-3M
KM12 = tested on: KM12
SNB-19 = tested on: SNB-19
OVCAR-4 = tested on: OVCAR-4
HCT-116 = tested on: HCT-116
SK-MEL-2 = tested on: SK-MEL-2
A549 = tested on: A549

Q: How did the GI50 (T47D) turn out when `O=c1c2ccccc2oc2nc3n(c(=O)c12)CCCS3` was run?
A: The GI50 was > 100 µM (inactive).

Q: And the GI50 (PC-3)?
A: The GI50 was > 100 µM (inactive).

Q: And the GI50 (SK-MEL-28)?
A: Its GI50 is > 100 µM (inactive).

Q: And the GI50 (SR)?
A: Its GI50 is > 100 µM (inactive).

Q: What about the GI50 (OVCAR-8) of the same molecule?
A: The GI50 was > 100 µM (inactive).

Q: And the GI50 (SK-MEL-5)?
A: Its GI50 is > 100 µM (inactive).

Q: What about the GI50 (HOP-92) of the same molecule?
A: The GI50 was > 100 µM (inactive).

Q: And the GI50 (CCRF-CEM)?
A: The GI50 was > 100 µM (inactive).

Q: And the GI50 (SNB-75)?
A: Its GI50 is 63.4 µM (inactive).

Q: What about the GI50 (HCT-15) of the same molecule?
A: Its GI50 is > 100 µM.

Q: And the GI50 (MCF7)?
A: Its GI50 is > 100 µM (inactive).

Q: What about the GI50 (UACC-62) of the same molecule?
A: Its GI50 is > 100 µM (inactive).

Q: And the GI50 (EKVX)?
A: The GI50 was > 100 µM (inactive).

Q: What about the GI50 (MDA-N) of the same molecule?
A: Its GI50 is > 100 µM (inactive).

Q: And the GI50 (Hs-578T)?
A: Its GI50 is > 100 µM (inactive).

Q: And the GI50 (UO-31)?
A: Its GI50 is 15.7 µM (inactive).

Q: What about the GI50 (DU-145) of the same molecule?
A: Its GI50 is > 100 µM (inactive).

Q: And the GI50 (NCI/ADR-RES)?
A: The GI50 was > 100 µM (inactive).

Q: And the GI50 (RXF 393)?
A: Its GI50 is > 100 µM (inactive).

Q: And the GI50 (NCI-H23)?
A: The GI50 was > 100 µM (inactive).

Q: And the GI50 (SW-620)?
A: The GI50 was > 100 µM (inactive).

Q: And the GI50 (TK-10)?
A: Its GI50 is > 100 µM (inactive).

Q: What about the GI50 (HOP-62) of the same molecule?
A: The GI50 was > 100 µM (inactive).

Q: What about the GI50 (BT-549) of the same molecule?
A: Its GI50 is > 100 µM (inactive).

Q: And the GI50 (NCI-H522)?
A: Its GI50 is > 100 µM (inactive).

Q: What about the GI50 (HCC 2998) of the same molecule?
A: The GI50 was > 100 µM (inactive).

Q: What about the GI50 (A498) of the same molecule?
A: Its GI50 is > 100 µM (inactive).

Q: What about the GI50 (M14) of the same molecule?
A: Its GI50 is > 100 µM (inactive).

Q: What about the GI50 (SN12C) of the same molecule?
A: The GI50 was > 100 µM (inactive).

Q: What about the GI50 (NCI-H226) of the same molecule?
A: Its GI50 is > 100 µM (inactive).

Q: What about the GI50 (SF-539) of the same molecule?
A: Its GI50 is > 100 µM (inactive).

Q: What about the GI50 (NCI-H460) of the same molecule?
A: Its GI50 is > 100 µM (inactive).

Q: What about the GI50 (SK-OV-3) of the same molecule?
A: The GI50 was > 100 µM (inactive).

Q: And the GI50 (SF-295)?
A: The GI50 was > 100 µM (inactive).

Q: What about the GI50 (SF-268) of the same molecule?
A: The GI50 was > 100 µM (inactive).

Q: What about the GI50 (COLO 205) of the same molecule?
A: Its GI50 is > 100 µM (inactive).

Q: What about the GI50 (U-251) of the same molecule?
A: Its GI50 is > 100 µM (inactive).

Q: And the GI50 (K562)?
A: The GI50 was > 100 µM (inactive).

Q: And the GI50 (LOX IMVI)?
A: Its GI50 is > 100 µM (inactive).

Q: And the GI50 (MOLT-4)?
A: Its GI50 is > 100 µM (inactive).

Q: And the GI50 (MDA-MB-231)?
A: Its GI50 is > 100 µM (inactive).

Q: What about the GI50 (UACC-257) of the same molecule?
A: Its GI50 is > 100 µM (inactive).

Q: What about the GI50 (IGROV-1) of the same molecule?
A: Its GI50 is > 100 µM (inactive).

Q: And the GI50 (OVCAR-3)?
A: Its GI50 is > 100 µM (inactive).

Q: What about the GI50 (OVCAR-5) of the same molecule?
A: Its GI50 is > 100 µM (inactive).

Q: What about the GI50 (MDA-MB-435) of the same molecule?
A: The GI50 was > 100 µM (inactive).

Q: What about the GI50 (786-0) of the same molecule?
A: Its GI50 is > 100 µM (inactive).

Q: What about the GI50 (CAKI-1) of the same molecule?
A: Its GI50 is > 100 µM (inactive).

Q: And the GI50 (ACHN)?
A: The GI50 was > 100 µM (inactive).

Q: What about the GI50 (RPMI-8226) of the same molecule?
A: The GI50 was > 100 µM (inactive).

Q: And the GI50 (Malme-3M)?
A: The GI50 was > 100 µM (inactive).

Q: What about the GI50 (KM12) of the same molecule?
A: The GI50 was > 100 µM (inactive).

Q: And the GI50 (SNB-19)?
A: Its GI50 is > 100 µM (inactive).

Q: What about the GI50 (OVCAR-4) of the same molecule?
A: The GI50 was > 100 µM (inactive).

Q: What about the GI50 (HCT-116) of the same molecule?
A: The GI50 was > 100 µM (inactive).

Q: What about the GI50 (SK-MEL-2) of the same molecule?
A: Its GI50 is > 100 µM (inactive).

Q: And the GI50 (A549)?
A: The GI50 was > 100 µM (inactive).
